In patent US8278288B2, “Organosiloxanes containing ester derivatives of ascorbic acid” (Dow Corning Corporation, priority 2007, dated 2012):
Like-named read-outs stand apart in the source and are kept apart here. Marks after values point to notes of the source that are not given here.

How the values were obtained:
[1] = system: Melanoderm tissue model MEL 300 A; assay: Skin whitening effect: melanin concentration in MelanoDerm tissue model; assay type: cell-based, human
Procedure: This example illustrates cell viability properties and efficacy of skin lightening formulations according to the present invention. In particular, two formulations according to the present invention (containing AUTS as prepared according to Example 4), water (a negative control), 1% kojic acid (Sigma, Wis.) in water (positive control), and ascorbyl tetraisopalmitate in D5 (decamethylcyclopentasiloxane) were assayed and compared for cell viability and skin lightening efficacy (see Table 1) MELANODERM™ cell viability was tested by MTT assay after exposure to test and reference preparations. The assays were carried out using Melanoderm tissue model MEL 300 A cell line (MELANODERM tissue model available from MatTek, Ashland, Mass.), This melanoderm model consists of normal, human-derived epidermal keratinocytes and melanocytes that have been co-cultured to form a multilayer, highly differentiated model of human epidermis. […] (Cell viability with both materials in D5 at 10 and 25 μL dose was >90%). Skin whitening effect was evaluated by measuring melanin concentration (μg/ml) after six applications of each preparation.

[2] = Solubility in various personal care solvents
Procedure: A 36 wt % mixture of the referenced sample and listed solvents were prepared in a glass vial. The sealed glass vials containing the mixtures were then placed in a 60° C. water bath and periodically shaken and observed.

[3] = 10 μl dose, six applications, in D5 (AUTS 3.2 wt %, VC-IP 6.4%)
[4] = 25 μl dose, six applications, in D5 (AUTS 3.2 wt %, VC-IP 6.4%)
[5] = 36 wt % mixture, 60° C. water bath, ** = nearly clear to hazy solution, gels when cooled to room temperature

Compound	Melanin concentration at Day 10, Average [1, 3]	Melanin concentration at Day 10, Average [1, 4]	Solubility in A = C12-15 Alkyl Benzoate (FINSOLV TN) [2]	Solubility in B = Cyclopentasiloxane (Dow/Corning 245 Fluid) [2]	Solubility in C = Squalane (Uniqema PRIPURE 3759) [2]	Solubility in D = Tricaprylin (TRIVENT OC-G) [2]	Solubility in Water [2]	further results
CCCCCCCCC(CCCCCC)C(=O)OC[C@H](OC(=O)C(CCCCCC)CCCCCCCC)[C@H]1OC(=O)C(OC(=O)C(CCCCCC)CCCCCCCC)=C1OC(=O)C(CCCCCC)CCCCCCCC (some centres unmarked) [VC-IP, ascorbyl tetraisopalmitate]	57.8* μg/ml	55.2** μg/ml	–	–	–	–	–	–
Bis-Ascorbyl Undecyl Polydimethylsiloxane [Comparative sample #2]	–	–	Yes	No	No	Yes	No	–
C[Si](C)(C)O[Si](C)(CCCCCCCCCCC(=O)OCC(O)C1OC(=O)C(O)=C1O)O[Si](C)(C)C (centres unmarked) [AUTS, Ascorbyl Undecyl Trisiloxane]	37.4* μg/ml	26.6** μg/ml	–	–	–	–	–	Solubility in Water ([2]; 36 wt % mixture, 60° C. water bath, * = translucent mixture that thickens to a viscous hazy liquid when cooled): No; Solubility in A = C12-15 Alkyl Benzoate (FINSOLV TN) [2, 5]: Yes**; Solubility in B = Cyclopentasiloxane (Dow/Corning 245 Fluid) [2, 5]: Yes**; Solubility in C = Squalane (Uniqema PRIPURE 3759) [2, 5]: Yes**; Solubility in E = Caprylic/Capric Triglyceride [2, 5]: Yes**
O=c1cc(CO)occ1O [Kojic Acid, kojic acid]	–	–	–	–	–	–	–	Melanin concentration at Day 10, Average ([1]; 25 μL dose, 1 wt % in water, six applications (positive control)): 41.9 µg/mL
Bis-Ascorbyl Undecyl Tetramethyldisiloxane [Comparative sample #1]	–	–	No	No	No	No	Yes*	–
